Laboratory results as given in ChEMBL document CHEMBL5678807, “A selective jumonji H3K27 demethylase inhibitor modulates the proinflammatory macrophage response” (Nature, 2012).
pIC50: −log10 of the molar value.

Experiments:
Macrophage [1] = test: Antiinflammatory activity in human primary macrophages assessed as effect on LPS-induced IL1F10 gene expression at 30 uM measured after 2 hrs by RT-PCR array (reference value: 125 a.u.); assay type: functional
Macrophage [2] = test: Antiinflammatory activity in human primary macrophages assessed as effect on LPS-induced IL12A gene expression at 30 uM measured after 2 hrs by RT-PCR array (reference value: 7097 a.u.); assay type: functional
Macrophage [3] = test: Antiinflammatory activity in human primary macrophages assessed as effect on LPS-induced IFNA8 gene expression at 30 uM measured after 2 hrs by RT-PCR array (reference value: 425 a.u.); assay type: functional
Macrophage [4] = test: Antiinflammatory activity in human primary macrophages assessed as effect on LPS-induced BMP1 gene expression at 30 uM measured after 2 hrs by RT-PCR array (reference value: 3930 a.u.); assay type: functional
Macrophage [5] = test: Antiinflammatory activity in human primary macrophages assessed as effect on LPS-induced TNFRSF11B gene expression at 30 uM measured after 2 hrs by RT-PCR array (reference value: 1609 a.u.); assay type: functional
Macrophage [6] = test: Antiinflammatory activity in human primary macrophages assessed as effect on LPS-induced TXLNA gene expression at 30 uM measured after 2 hrs by RT-PCR array (reference value: 8115 a.u.); assay type: functional
Macrophage [7] = test: Antiinflammatory activity in human primary macrophages assessed as effect on LPS-induced FIGF gene expression at 30 uM measured after 2 hrs by RT-PCR array (reference value: 60 a.u.); assay type: functional
Macrophage [8] = test: Antiinflammatory activity in human primary macrophages assessed as effect on LPS-induced IL18 gene expression at 30 uM measured after 2 hrs by RT-PCR array (reference value: 153374 a.u.); assay type: functional
Macrophage [9] = test: Antiinflammatory activity in human primary macrophages assessed as effect on LPS-induced IL1F8 gene expression at 30 uM measured after 2 hrs by RT-PCR array (reference value: 1429 a.u.); assay type: functional
Macrophage [10] = test: Antiinflammatory activity in human primary macrophages assessed as effect on LPS-induced IL7 gene expression at 30 uM measured after 2 hrs by RT-PCR array (reference value: 60083 a.u.); assay type: functional
Macrophage [11] = test: Antiinflammatory activity in human primary macrophages assessed as effect on LPS-induced IL6 gene expression at 30 uM measured after 2 hrs by RT-PCR array (reference value: 3511720 a.u.); assay type: functional
Macrophage [12] = test: Antiinflammatory activity in human primary macrophages assessed as effect on LPS-induced GDF3 gene expression at 30 uM measured after 2 hrs by RT-PCR array (reference value: 134 a.u.); assay type: functional
Macrophage [13] = test: Antiinflammatory activity in human primary macrophages assessed as effect on LPS-induced TNFSF12 gene expression at 30 uM measured after 2 hrs by RT-PCR array (reference value: 12514 a.u.); assay type: functional
Prolyl hydroxylase EGLN3 = Prolyl hydroxylase EGLN3 (Homo sapiens, UniProt Q9H6Z9); test: Inhibition of human EGLN3 by TR-FRET assay
Prolyl hydroxylase EGLN3, sequence (Q9H6Z9 whole entry): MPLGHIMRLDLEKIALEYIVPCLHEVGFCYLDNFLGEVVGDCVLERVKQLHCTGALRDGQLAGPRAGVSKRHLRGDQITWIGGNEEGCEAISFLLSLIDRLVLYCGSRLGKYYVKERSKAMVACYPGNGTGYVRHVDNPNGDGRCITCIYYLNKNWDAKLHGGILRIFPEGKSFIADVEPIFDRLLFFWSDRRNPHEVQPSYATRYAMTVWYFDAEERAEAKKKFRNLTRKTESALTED

[14] = target: Kappa-type opioid receptor (Homo sapiens, UniProt P41145); test: Antagonist activity at human OPRK-1 by SPA; assay type: functional
Histone deacetylase 9 = Histone deacetylase 9 (Homo sapiens, UniProt Q9UKV0); test: Inhibition of human HDAC9 by FLINT assay
Histone deacetylase 9, sequence (Q9UKV0 whole entry): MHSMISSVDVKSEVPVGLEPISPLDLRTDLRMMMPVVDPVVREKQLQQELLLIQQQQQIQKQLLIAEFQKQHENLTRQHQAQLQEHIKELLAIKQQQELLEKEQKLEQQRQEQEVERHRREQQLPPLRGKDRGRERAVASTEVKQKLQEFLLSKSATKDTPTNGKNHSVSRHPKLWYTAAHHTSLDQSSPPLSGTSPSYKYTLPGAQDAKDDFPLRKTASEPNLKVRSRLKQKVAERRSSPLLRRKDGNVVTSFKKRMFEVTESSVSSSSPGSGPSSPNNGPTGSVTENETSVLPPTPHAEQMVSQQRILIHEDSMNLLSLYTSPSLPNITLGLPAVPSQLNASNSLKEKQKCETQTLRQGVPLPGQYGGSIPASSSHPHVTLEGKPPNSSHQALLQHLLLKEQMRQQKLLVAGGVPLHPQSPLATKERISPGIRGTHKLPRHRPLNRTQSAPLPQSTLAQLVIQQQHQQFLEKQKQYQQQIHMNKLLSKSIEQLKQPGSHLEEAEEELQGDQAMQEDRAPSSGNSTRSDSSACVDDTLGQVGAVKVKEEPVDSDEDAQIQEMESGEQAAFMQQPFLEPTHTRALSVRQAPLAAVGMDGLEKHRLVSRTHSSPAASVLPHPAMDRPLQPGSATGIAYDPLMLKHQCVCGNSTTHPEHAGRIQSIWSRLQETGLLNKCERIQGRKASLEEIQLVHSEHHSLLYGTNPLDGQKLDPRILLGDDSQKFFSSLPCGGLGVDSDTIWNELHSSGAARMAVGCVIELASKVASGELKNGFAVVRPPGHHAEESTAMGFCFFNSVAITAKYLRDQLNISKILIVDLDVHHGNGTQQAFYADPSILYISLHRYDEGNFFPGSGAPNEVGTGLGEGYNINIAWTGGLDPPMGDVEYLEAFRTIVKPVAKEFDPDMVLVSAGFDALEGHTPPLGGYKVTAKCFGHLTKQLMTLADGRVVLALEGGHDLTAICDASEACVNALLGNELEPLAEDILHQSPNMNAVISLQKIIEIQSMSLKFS

OATP1B1 (SLCO1B1) = OATP1B1 (SLCO1B1) (Homo sapiens, UniProt Q9Y6L6); test: Blockade of human OATP1B1 by imaging analysis
OATP1B1 (SLCO1B1), sequence (Q9Y6L6 whole entry): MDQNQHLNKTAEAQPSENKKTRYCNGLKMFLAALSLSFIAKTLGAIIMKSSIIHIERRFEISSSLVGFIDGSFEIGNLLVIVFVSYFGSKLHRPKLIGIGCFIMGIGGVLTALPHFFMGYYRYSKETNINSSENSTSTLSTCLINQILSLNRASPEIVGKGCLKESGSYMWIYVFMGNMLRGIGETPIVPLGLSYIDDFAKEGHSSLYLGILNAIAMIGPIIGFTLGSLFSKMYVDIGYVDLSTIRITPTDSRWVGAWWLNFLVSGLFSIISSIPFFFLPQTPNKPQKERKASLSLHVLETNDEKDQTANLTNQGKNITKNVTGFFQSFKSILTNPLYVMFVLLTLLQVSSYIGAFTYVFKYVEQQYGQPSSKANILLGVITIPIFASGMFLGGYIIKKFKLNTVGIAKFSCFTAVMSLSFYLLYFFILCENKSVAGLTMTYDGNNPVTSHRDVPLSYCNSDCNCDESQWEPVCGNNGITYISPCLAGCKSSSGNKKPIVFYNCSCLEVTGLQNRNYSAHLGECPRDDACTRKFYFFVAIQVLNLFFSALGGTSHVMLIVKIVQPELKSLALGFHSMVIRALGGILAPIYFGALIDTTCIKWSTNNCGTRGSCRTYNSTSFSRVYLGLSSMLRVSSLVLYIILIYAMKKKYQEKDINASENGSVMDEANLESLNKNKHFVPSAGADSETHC

[15] = target: T1, 5-hydroxytryptamine receptor 2C (Homo sapiens, UniProt P28335); test: Antagonist activity at human 5-HT2C by intracellular Ca luminescence assay; assay type: functional, cell-based
T1 sequence (P28335 whole entry): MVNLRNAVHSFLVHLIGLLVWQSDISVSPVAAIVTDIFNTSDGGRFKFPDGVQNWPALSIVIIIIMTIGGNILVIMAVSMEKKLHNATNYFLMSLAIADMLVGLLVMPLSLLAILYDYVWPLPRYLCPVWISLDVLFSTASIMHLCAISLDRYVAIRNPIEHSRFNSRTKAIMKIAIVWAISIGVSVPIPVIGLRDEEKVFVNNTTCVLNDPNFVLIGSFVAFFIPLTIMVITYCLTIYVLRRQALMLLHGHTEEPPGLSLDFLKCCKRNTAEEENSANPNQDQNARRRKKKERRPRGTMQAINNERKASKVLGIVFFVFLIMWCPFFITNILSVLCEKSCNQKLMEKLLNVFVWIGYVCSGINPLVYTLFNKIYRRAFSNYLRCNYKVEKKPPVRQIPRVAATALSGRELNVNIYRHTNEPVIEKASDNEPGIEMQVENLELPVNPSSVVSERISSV

[16] = target: Lysine-specific demethylase 4D (Homo sapiens, UniProt Q6B0I6); test: Inhibition of human JmjD2d using H3K27(me3) as substrate preincubated for 10 mins followed by substrate addition and measured after 7 mins in presence of alpha-KG by RapidFire Mass Spectrometry
Lysine-specific demethylase 4D, sequence (Q6B0I6 whole entry): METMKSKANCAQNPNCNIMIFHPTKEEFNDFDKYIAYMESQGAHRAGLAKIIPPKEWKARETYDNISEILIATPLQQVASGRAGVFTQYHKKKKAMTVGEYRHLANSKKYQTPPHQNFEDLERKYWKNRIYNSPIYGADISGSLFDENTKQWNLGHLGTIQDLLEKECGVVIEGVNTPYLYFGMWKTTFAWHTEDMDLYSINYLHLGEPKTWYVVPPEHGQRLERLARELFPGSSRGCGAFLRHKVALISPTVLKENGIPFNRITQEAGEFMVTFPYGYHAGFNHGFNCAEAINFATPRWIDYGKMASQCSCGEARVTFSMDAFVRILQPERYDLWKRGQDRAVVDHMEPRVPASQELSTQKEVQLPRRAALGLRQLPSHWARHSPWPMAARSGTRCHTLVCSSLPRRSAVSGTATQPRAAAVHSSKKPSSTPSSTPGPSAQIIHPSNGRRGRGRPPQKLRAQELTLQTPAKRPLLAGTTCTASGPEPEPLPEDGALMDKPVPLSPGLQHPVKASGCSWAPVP

[17] = Antagonist activity at human NR1A/NR2B by intracellular Ca fluorescence assay; assay type: cell-based
[18] = Antagonist activity at human 5-HT3 by intracellular Ca fluorescence assay; assay type: cell-based
[19] = target: 5-hydroxytryptamine receptor 2A (Homo sapiens, UniProt P28223); test: Agonist activity at human 5-HT2A by intracellular Ca luminescence assay; assay type: functional, cell-based
Vasopressin V1a receptor = Vasopressin V1a receptor (Homo sapiens, UniProt P37288); test: Antagonist activity at human vasopressin V1a by intracellular Ca luminescence assay; assay type: functional, cell-based
Vasopressin V1a receptor, sequence (P37288 whole entry): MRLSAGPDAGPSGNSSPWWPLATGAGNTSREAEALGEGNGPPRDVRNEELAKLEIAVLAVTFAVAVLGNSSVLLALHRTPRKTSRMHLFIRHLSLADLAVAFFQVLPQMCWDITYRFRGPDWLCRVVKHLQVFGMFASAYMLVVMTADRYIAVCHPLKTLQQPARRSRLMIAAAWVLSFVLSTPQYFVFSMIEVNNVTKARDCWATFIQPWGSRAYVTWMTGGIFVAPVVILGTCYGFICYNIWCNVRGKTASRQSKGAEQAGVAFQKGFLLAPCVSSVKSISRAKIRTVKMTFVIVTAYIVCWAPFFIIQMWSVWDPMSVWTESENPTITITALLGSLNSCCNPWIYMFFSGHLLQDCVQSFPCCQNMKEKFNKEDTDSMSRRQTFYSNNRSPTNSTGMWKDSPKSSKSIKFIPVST

[20] = target: Acetylcholine receptor subunit alpha (Homo sapiens, UniProt P02708); test: Agonist activity at human alpha 1 nAChR by intracellular Ca fluorescence assay; assay type: cell-based
Mu-type opioid receptor = Mu-type opioid receptor (Homo sapiens, UniProt P35372); test: Antagonist activity at human OPRM-1 by SPA; assay type: functional
Mu-type opioid receptor, sequence (P35372 whole entry): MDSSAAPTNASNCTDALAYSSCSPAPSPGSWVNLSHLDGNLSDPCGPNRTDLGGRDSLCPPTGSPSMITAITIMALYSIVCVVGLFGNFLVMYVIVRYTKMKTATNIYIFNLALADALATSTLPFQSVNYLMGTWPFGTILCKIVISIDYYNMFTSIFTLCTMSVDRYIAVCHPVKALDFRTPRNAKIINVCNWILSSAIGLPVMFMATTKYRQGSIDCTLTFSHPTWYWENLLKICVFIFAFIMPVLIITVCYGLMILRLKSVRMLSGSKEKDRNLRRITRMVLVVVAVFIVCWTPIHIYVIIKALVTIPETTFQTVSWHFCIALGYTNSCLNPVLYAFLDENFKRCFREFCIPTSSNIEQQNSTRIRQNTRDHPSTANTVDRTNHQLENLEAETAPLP

D(2) dopamine receptor = D(2) dopamine receptor (Homo sapiens, UniProt P14416); test: Agonist activity at human dopamine 2 by SPA; assay type: functional
D(2) dopamine receptor, sequence (P14416 whole entry): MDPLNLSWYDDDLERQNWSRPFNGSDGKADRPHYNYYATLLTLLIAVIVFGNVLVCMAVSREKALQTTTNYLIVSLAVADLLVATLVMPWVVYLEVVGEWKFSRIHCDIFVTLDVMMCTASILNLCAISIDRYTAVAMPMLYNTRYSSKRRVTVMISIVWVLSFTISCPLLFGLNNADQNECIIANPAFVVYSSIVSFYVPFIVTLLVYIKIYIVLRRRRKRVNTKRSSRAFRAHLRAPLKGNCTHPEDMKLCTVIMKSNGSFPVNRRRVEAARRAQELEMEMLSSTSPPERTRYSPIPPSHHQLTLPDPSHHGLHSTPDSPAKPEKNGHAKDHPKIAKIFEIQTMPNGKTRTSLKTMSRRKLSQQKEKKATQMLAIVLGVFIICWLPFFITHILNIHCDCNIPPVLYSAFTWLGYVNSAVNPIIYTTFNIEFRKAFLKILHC

hERG (KCNH2) = hERG (KCNH2) (Homo sapiens, UniProt Q12809); test: Blockade of human KCNH2 by electrophysiology assay; assay type: toxicity
Histone deacetylase 5 = Histone deacetylase 5 (Homo sapiens, UniProt Q9UQL6); test: Inhibition of human HDAC5 by FLINT assay
Histone deacetylase 5, sequence (Q9UQL6 whole entry): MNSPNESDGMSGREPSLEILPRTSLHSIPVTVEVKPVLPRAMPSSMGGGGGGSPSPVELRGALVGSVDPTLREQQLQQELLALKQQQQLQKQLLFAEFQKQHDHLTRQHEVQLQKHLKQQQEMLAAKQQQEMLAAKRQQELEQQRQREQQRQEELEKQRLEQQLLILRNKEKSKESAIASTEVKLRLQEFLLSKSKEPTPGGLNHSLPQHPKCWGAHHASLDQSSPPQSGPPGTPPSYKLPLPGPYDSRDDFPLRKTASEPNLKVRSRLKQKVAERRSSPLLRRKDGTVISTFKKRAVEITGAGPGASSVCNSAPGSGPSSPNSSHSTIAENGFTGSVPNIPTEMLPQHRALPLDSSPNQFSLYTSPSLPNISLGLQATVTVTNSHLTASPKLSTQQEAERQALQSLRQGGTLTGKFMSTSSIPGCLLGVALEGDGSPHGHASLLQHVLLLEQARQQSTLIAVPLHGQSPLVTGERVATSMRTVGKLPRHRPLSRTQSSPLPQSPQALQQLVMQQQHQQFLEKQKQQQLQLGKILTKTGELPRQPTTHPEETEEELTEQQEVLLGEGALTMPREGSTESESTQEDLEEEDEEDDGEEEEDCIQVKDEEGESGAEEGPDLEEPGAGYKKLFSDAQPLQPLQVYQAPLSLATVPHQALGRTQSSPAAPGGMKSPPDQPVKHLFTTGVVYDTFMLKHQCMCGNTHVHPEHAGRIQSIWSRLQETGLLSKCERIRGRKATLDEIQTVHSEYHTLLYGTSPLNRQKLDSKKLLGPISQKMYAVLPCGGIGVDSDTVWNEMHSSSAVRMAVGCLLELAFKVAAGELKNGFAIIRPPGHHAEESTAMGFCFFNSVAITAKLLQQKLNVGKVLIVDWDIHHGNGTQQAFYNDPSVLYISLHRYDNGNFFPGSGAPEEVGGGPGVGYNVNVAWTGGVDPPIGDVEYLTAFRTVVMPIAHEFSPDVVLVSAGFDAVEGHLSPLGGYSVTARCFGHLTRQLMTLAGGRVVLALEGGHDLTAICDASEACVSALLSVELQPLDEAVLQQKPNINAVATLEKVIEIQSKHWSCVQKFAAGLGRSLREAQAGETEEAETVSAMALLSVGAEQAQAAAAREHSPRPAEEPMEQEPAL

Compound	Activity (Macrophage [1]) [a.u.]	Activity (Macrophage [2]) [a.u.]	Activity (Macrophage [3]) [a.u.]	Activity (Macrophage [4]) [a.u.]	Activity (Macrophage [5]) [a.u.]	Activity (Macrophage [6]) [a.u.]	Activity (Macrophage [7]) [a.u.]	Activity (Macrophage [8]) [a.u.]	Activity (Macrophage [9]) [a.u.]	Activity (Macrophage [10]) [a.u.]	Activity (Macrophage [11]) [a.u.]	Activity (Macrophage [12]) [a.u.]	Activity (Macrophage [13]) [a.u.]	XC50 (Prolyl hydroxylase EGLN3) [µM]	XC50 [14] [µM]	XC50 (Histone deacetylase 9) [µM]	XC50 (OATP1B1 (SLCO1B1)) [µM]	XC50 [15] [µM]	pIC50 [16]	XC50 [17] [µM]	other results
CCOC(=O)CCNc1cc(N2CCc3ccccc3CC2)nc(-c2ccccn2)n1	11	304	1012	2627	267	5959	19	74923	1157	4135	242914	59	8686	–	–	–	–	–	–	–	–
O=C(O)CCNc1cc(N2CCc3ccccc3CC2)nc(-c2ccccn2)n1	–	–	–	–	–	–	–	–	–	–	–	–	–	> 50	50	> 300	> 25	> 40	4.10	> 50	XC50 [18]: > 4.3 µM; XC50 [19]: > 40 µM; XC50 (Vasopressin V1a receptor): > 50 µM; XC50 [20]: > 50 µM; XC50 (Mu-type opioid receptor): 50 µM; XC50 (D(2) dopamine receptor): > 100 µM; XC50 (hERG (KCNH2)): 8 µM; XC50 (Histone deacetylase 5): > 300 µM
O=C(O)CCNc1cc(N2CCc3ccccc3CC2)nc(-c2cccnc2)n1	–	–	–	–	–	–	–	–	–	–	–	–	–	> 50	50	> 300	20	> 40	< 4.00	> 50	XC50 [18]: 25 µM; XC50 [19]: > 40 µM; XC50 (Vasopressin V1a receptor): 4.9 µM; XC50 [20]: > 50 µM; XC50 (Mu-type opioid receptor): 63 µM; XC50 (D(2) dopamine receptor): > 100 µM; XC50 (hERG (KCNH2)): > 50 µM; XC50 (Histone deacetylase 5): > 300 µM
CCOC(=O)CCNc1cc(N2CCc3ccccc3CC2)nc(-c2cccnc2)n1	102	5021	431	2746	784	6886	87	185197	2282	24543	1497395	151	10108	–	–	–	–	–	–	–	–
